The values below come from publication PMC3340383, “Synthesis and Evaluation of a Series of 2-Substituted-5-Thiopropylpiperazine (Piperidine)-1,3,4-Oxadiazoles Derivatives as Atypical Antipsychotics” (PLoS ONE, 2012).

The target in data set [1] is T1, serotonin 5-HT1A receptor (Rattus norvegicus, UniProt P19327).
T1 construct: Rat cerebral cortex was homogenized in 20 volumes of ice-cold Tris-HCl buffer; from tissue; host or cells: rat brain (cerebral) cortex
T1 sequence (P19327 1-422): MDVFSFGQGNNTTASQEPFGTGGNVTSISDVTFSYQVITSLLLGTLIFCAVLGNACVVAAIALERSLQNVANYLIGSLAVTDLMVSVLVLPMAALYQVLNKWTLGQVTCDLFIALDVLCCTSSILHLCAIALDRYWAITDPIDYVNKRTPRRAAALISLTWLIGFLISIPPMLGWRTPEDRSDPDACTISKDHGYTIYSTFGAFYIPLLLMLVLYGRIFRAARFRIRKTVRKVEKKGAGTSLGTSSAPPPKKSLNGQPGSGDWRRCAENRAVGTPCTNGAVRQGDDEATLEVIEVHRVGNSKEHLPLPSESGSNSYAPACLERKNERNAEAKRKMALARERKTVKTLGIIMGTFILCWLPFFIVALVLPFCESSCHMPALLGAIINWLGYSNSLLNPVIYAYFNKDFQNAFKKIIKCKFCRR
The experiment in a line: 5-HT1A binding assay ([3H]8-OH-DPAT, rat brain cortex). The settings on record: [3H]8-OH-DPAT, rat brain cortex; mean of three experiments; >10000 marked b: Ki not calculated, inhibition at 10 µM too low; read-out: Ki±SEM, 5HT1A. The method, then:
(§1) All the new compounds were dissolved in 5% DMSO. The following specific radioligands and tissue sources were used: (a) serotonin 5-HT1A receptor, [^3H]8-OH-DPAT, rat brain cortex; (b) serotonin 5-HT2A receptor, [^3H]ketanserin, rat brain cortex; (c) serotonin 5-HT2C receptor, [^3H]mesulergine, rat brain cortex; (d) dopamine D2 receptor, [^3H]spiperone, rat striatum; (e) dopamine D3 receptor, [^3H]spiperone, rat olfactory tubercle (f) histamine H1 receptor, [^3H] pyrilamine, guinea pig cerebellum.
(§2) Total binding was determined in the absence of no-specific binding and compounds. Specific binding was determined in the presence of compounds. Non-specific binding was determined as the difference between total and specific binding.
(§3) Percentage of inhibition (%) = (total binding − specific binding)×100%/(total binding − nonspecific binding).
(§4) Ki values were calculated based on the Cheng and Prussoff equation: Ki = IC50/(1+C/Kd) where C represents the concentration of the hot ligand used and Kd its receptor dissociation constant were calculated for each labeled ligand. Mean Ki values and SEM were reported for at least three independent experiments.
Rat cerebral cortex was homogenized in 20 volumes of ice-cold Tris-HCl buffer (50 mM, pH 7.7) using an ULTRA TURAX homogeniser, and was then centrifuged at 32000 g for 10 min. […] The final pellet was resuspended in Tris-HCl buffer containing 10 µM Pargyline, 4 mM CaCl2 and 0.1% ascorbic acid.
Total binding each assay tube was added 900 µL of the tissue suspension, 50 µL of 0.5 nM [^3H]8-OH-DPAT (187.4 Ci/mmol, Perkin Elmer Life Sciences, Boston, MA, USA), 50 µL Tris-HCl buffer containing 10 µM Pargyline, 4 mM CaCl2 and 0.1% ascorbic acid.
Non-specific binding each assay tube was added 900 µL of the tissue suspension, 50 µL of 0.5 nM [^3H]8-OH-DPAT, 50 µL of 10 µM serotonin.
Specific binding each assay tube was added 900 µL of the tissue suspension, 50 µL of 0.5 nM [^3H]8-OH-DPAT, 50 µL of new compounds or reference drug.
The incubation was followed by a rapid vacuum filtration through Whatman GF/B glass filters, and the filtrates were washed twice with 5mL cold buffer and transferred to scintillation vials. Scintillation fluid (3.0 mL) was added and the radioactivity bound was measured using a Beckman LS 6500 liquid scintillation counter.

Data set [2] has as its system catalepsy in mice. The experiment in a line: Catalepsy test (horizontal bar). Conditions: po.
The nature of data set [3]: Pharmacokinetics study in rat. Conditions: rats. Type of data set: in vivo. On the procedure:
The HPLC conditions were as follows: column, Shim-pack ODS 5.0 µm×150 mm×2.0 mm I.D (SHIMADZU, Japanese); mobile phase, 0.0167% HCOOH (TEDIA Company, USA)/acetonitrile (Merck Company, Germany)50/50; flow rate, 0.2 mL/min; column temperature, 40°C.
For routine compound 22 screening rats (n = 6/group) were dosed via the lateral tail vein at the indicated dose for intravenous administration (5 mg/kg, 100% saline) or via oral gavage (20 mg/kg, suspension in 0.5% methylcellulose). At 30 min, 1 h, 2 h, 3 h, 4 h, 5 h, 6 h, 7 h and 24 h after administration, serial blood samples were collected from the lateral tail vein into heparinized collection tubes (approximately 0.25 mL). The plasma was separated by centrifugation, and the sample was prepared for analysis HPLC/MS by protein precipitation with acetonitrile. The plasma samples were analyzed for drug and internal standard via HPLC-MS/MS protocol.

Data set [4] deals with T2, serotonin 5-HT2A receptor (Rattus norvegicus, UniProt P14842).
T2 construct: Rat cerebral cortex was homogenized in 20 volumes of ice-cold Tris-HCl buffer; from tissue; host or cells: rat brain (cerebral) cortex
Kind of data set: 5-HT2A binding assay ([3H]ketanserin, rat brain cortex). The settings on record: [3H]ketanserin, rat brain cortex; mean of three experiments; >10000 marked b: Ki not calculated, inhibition at 10 µM too low; read-out: Ki±SEM, 5HT2A. On the procedure: as §1, §2, §3, §4
Rat cerebral cortex was homogenized in 20 volumes of ice-cold Tris-HCl buffer (50 mM, pH 7.7) using an ULTRA TURAX homogeniser, and centrifuged at 32000 g for 20 min. The resulting pellet was resuspended in the same quantity of the buffer centrifuged for 20 min. The final pellet was resuspended in 50 volumes of the Tris-HCl buffer.
Total binding each assay tube was added 900 µL of the tissue suspension, 50 µL of 0.6 nM [^3H]ketanserin (60.0 Ci/mmol, Perkin Elmer Life Sciences, Boston, MA, USA), 50 µL Tris-HCl buffer.
Non-specific binding each assay tube was added 900 µL of the tissue suspension, 50 µL of 0.6 nM [^3H]ketanserin, 50 µL of 10 µM methisergide.
Specific binding each assay tube was added 900 µL of the tissue suspension, 50 µL of 0.6 nM [^3H]ketanserin, […] of new compounds or reference drug.
The incubation was followed by a rapid vacuum filtration through Whatman GF/B glass filters, and the filtrates were washed twice with 5 mL cold buffer and transferred to scintillation vials. Scintillation fluid (3.0 mL) was added and the radioactivity bound was measured using a Beckman LS 6500 liquid scintillation counter.

Data set [5] deals with MK-801-induced hyperactivity in mice. Kind of data set: MK-801-induced hyperactivity. The settings on record: mice, po; 95% confidence limits in parentheses.
Data set [6] has as its system mice. Kind of data set: Acute toxicity study. Type of data set: in vivo. The settings on record: oral, survival after 24 h, highest dose 2000 mg/kg. The method, then: The number of surviving animals was recorded after 24 h of drug administration, and the percent mortality in each group was calculated.

The structures appear in SMILES notation. A value given as a limit tells only on which side of the number the result lay.

T2 sequence (P14842 whole entry): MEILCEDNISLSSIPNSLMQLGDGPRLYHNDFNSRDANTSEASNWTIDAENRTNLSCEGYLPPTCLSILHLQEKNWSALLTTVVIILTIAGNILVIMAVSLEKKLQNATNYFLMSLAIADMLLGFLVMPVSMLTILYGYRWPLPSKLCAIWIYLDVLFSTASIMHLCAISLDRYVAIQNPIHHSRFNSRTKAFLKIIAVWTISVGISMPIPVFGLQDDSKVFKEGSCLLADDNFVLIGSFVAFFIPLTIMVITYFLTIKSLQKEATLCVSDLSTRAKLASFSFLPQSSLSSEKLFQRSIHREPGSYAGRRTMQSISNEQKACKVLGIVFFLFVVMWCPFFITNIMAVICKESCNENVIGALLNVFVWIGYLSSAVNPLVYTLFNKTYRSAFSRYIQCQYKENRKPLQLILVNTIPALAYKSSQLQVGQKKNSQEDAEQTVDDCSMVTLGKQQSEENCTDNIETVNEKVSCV

A word on the Ki: it is the dissociation constant of the complex between target and ligand, obtained from inhibition or displacement. A word on the Cmax: it is the maximum level reached in the sampled fluid or tissue. A word on the Tmax: it is the time at which the peak concentration occurs. The term LD50 denotes the dose expected to kill half of the subjects tested. Low readings indicate a more toxic substance, high ones a less toxic substance. As to `Fc1ccc2c(C3CCN(CCCSc4nnc(-c5cccc6ccccc56)o4)CC3)noc2c1` [Compound 22, 2-(3-(4-(6-fluorobenzo[d]isoxazol-3-yl)piperidin-1-yl)propylthio)-5-(naphthalen-1-yl)-1,3,4-oxadiazole], the Ki in data set [1] is 4.6 ± 0.8 nM. Moreover, the “CAT (catalepsy) ED50 (C)” value in data set [2] was greater than 300 mg/kg. In data set [3] (i.v. 5 mg/kg, plasma, n = 6), this molecule yielded an AUC0-inf of 6239.0 ng·h/mL and a t1/2 of 9.3 h. The “F (bioavailability)” value in data set [3] (oral 20 mg/kg vs i.v. 5 mg/kg) stood at 54.5%. Also, in data set [3] (oral 20 mg/kg, plasma, n = 6), the AUC0-inf was found to be 13602.7 ng·h/mL, the Cmax turned out to be 723.6 ng/mL, the Tmax is reported as 5 h and the t1/2 is given as 8.6 h. Moreover, the Ki in data set [4] was 1.1 ± 0.1 nM. For the same molecule, the “MK-801-induced hyperactivity ED50 (B)” value in data set [5] is listed as 3.58 (2.59–8.28) mg/kg. In addition, in data set [6], the LD50 is on record as greater than 2000 mg/kg.
